# Test results taken from patent US12503510B2, “Small shedding blocking agents” (BIOND BIOLOGICS LTD., priority 2019, dated 2025).
# Where two headings read alike, the source gives them in different places.
# How the values were obtained:
# human PBMCs [1] = test: Soluble CD28 generation in SEB or CMV stimulated PBMCs, human CD28 ELISA; format: cell-based; conditions: SEB 1 ng/mL; inhibitor 0.01-1 μM
# Experimental: Protease Inhibitors—Protease inhibitors were added at the indicated concentrations at the start of each experiment. In week long assays another portion of the inhibitors was added after 3 days at the final concentration. Protease inhibitors used are TAPI-1 (Cayman, Cat. No. 18505), GM6001 (Santa Cruz, Cat. No. SC-203979), TMI-1 (Sigma, Cat. No. PZ0336) and GI254023X (Sigma, Cat. No. SML0789). Where mentioned the protease cocktail was composed with a mixture of TAPI-1 and GM6001 at equimolar ratio.
# human PBMCs [2] = tested on: human PBMCs
# SCC-25 cells = test: Co-culture of SCC-25 cancer cell line with monocytes in trans-well assay; format: cell-based, human
# Experimental: Co-culture of SCC-25 cancer cell line with monocytes in trans-well based assay—4×10^4 SCC-25 cells were plated on the bottom of 24 well plate with 1×10^5 monocytes placed on cell culture insert (Millipore, Cat. No. MCHT241148) with or without indicated treatments for 4 days in starvation media without serum.
# Next, cells of the head and neck cancer cell line SCC-25 were incubated either alone or with monocytes in a trans-well assay. SCC-25 cells grown alone were administered IL-6 as a positive control, and indeed cell proliferation, as measured by MTT (FIG. 9C, upper) and as measured by % confluency (FIG. 9C, lower), was increased.
# human PBMCs [3] = test: CMV stimulation of PBMCs with ectopic recombinant human CD28 or CTLA-4, cytokine ELISA/multiplex; format: cell-based; conditions: CMV 0.5 μg/mL
# human PBMCs [4] = test: Lymphocyte clustering of SEB stimulated PBMCs (IncuCyte); format: cell-based; conditions: SEB 1 ng/mL
# Experimental: Next, human PBMCs were stimulated with SEB (1 ng/mL) without or in the presence of recombinant human CD28. Human IgG was used as control. Lymphocyte clustering, a hallmark of immune activation was monitored using the IncuCyte® S3 Live-Cell, with pictures taken every 12 hours. […] It is well established that during in-vitro immune response antigen presenting cells (APC) cluster with one another and with other cell types, and clustering is essential for the antigen specific activation of resting lymphocytes.
# [5] = tested on: autologous monocytes and CD3 T cells; test: Autologous monocytes CD3 MLR with CMV peptide; format: cell-based, human
# Experimental: The mixed cells were stimulated for 5 days with CMV peptide (0.5 μg/mL) with and without increasing concentrations of recombinant human sCD28.
# The MLR was run as before only with and without sCD28 and with and without an anti-PD1 antibody (MK3475, 5 μg/mL) (FIG. 8B).
# isolated human monocytes = test: Stimulation of monocytes with recombinant human CD28 (IDO, PD-L1, PD-L2); format: cell-based; conditions: IFNγ 1000 U/mL, recombinant human CD28 10 μg/mL
# Experimental: Stimulation of monocytes with recombinant human CD28—1.5×10^6 monocytes were plated at 24 well plate in RPMI medium with […] IFN gamma (R&D system, Cat. No. 285-IF) in the presence of recombinant human CD28 at the indicated concentrations for 48 hrs. The generated cell populations were tested for the indicated phenotypes by FACS analysis of relevant markers (IDO, PD-L1 and PD-L2) and by analysis of secretion of characteristic cytokines (IL-6).
# The enzyme indoleamine 2,3-dioxygenase (IDO) has been implicated in immune modulation through its ability to catabolize the essential amino acid Tryptophan. It is expressed by different immune cells and also by many cancer cells. Tryptophan shortage inhibits T lymphocytes maturation and proliferation, while Kynurenine, the end product of tryptophan catabolism, is also known as immunosuppressive metabolite that promotes immune tolerance in various physiological and pathophysiological conditions. To test the effect of sCD28 on IDO, isolated human monocytes were stimulated for 48 hr with IFNγ (1000 U/mL) in the presence of control human IgG or with recombinant human CD28 (10 μg/mL). After incubation, the monocytes were stained intracellularly for human IDO (FIG. 7E). To facilitate intracellular staining the cells were fixed and permeabilized with BD Cytofix/Cytoperm Buffer Kit.
# In order to elucidate the mechanism by which sCD28 inhibits the pro-activation effect of anti-PD-1 therapy, the expression of PD-1 ligands on immune cells in the presence of sCD28 was examined. Isolated human monocytes were stimulated for 48 hours with IFNγ (1000 U/mL) in the presence of control human IgG (10 μg/mL) or with recombinant human CD28 (10 μg/mL). After incubation the monocytes were stained for PD-L1 (FIG. 8C, left) and PD-L2 (FIG. 8C, right).
# human PBMCs [6] = test: SEB or CMV stimulated PBMCs with anti-PD1 and soluble CD28; format: cell-based
# PBMC of cancer patients = test: SEB stimulated PBMC of cancer patients with sCD28 and MK-3475; format: cell-based, human; conditions: SEB 5 ng/mL, 3 days
# [7] = tested on: isolated CD3 human T cells; test: T cells stimulation with OKT3 and CD80-Fc, IFN gamma; format: cell-based; conditions: OKT3 2 μg/mL
# Experimental: T cells stimulation with OKT3—0.1×10^6 isolated CD3 T cells (from healthy donors) were stimulated with indicated amount of anti-CD3 clone OKT3 for 48-72 hr at 37° C. When stated recombinant human CD80-Fc (2 μg/mL, R&D system) was added in soluble form. Antibodies or VHHs to CD28 or controls were added at the indicated concentration in soluble form.
# CD80 is one of the two main ligands for mCD28 along with CD86. The extracellular domain of CD80 fused to an Fc moiety has been used as an immune stimulatory molecule and is under investigation as a cancer therapy. In order to examine the effect of sCD28 on CD80-Fc efficacy, isolated CD3 human T cells were stimulated with plate bound anti-CD3 antibody (OKT3, 2 μg/mL) in the presence of 2 μg/mL soluble recombinant human CD80-Fc.
# isolated PBMCs = test: CMV stimulated PBMC with constant sCD28 and CD80-Fc titration; format: cell-based, human; conditions: CMV peptide 3 days
# [8] = tested on: H22 hepatocellular carcinoma cells; test: H22 syngeneic mouse model; format: in vivo; conditions: Balb/c mice, H22 allograft, with anti-PD-1
# [9] = CMV peptide 0.5 μg/mL, 5 days, increasing sCD28
molecule,measurement,setting,value
CNC(=O)[C@@H](NC(=O)[C@H](CCCc1ccccc1)[C@H](C)N(O)C=O)C(C)(C)C [GI254023X],sCD28 release from activated immune cells,human PBMCs [1],almost complete inhibition of sCD28 release
same,viability of the immune cells (MTT),"human PBMCs [2]; SEB 1 ng/mL, with vs without ADAM inhibitor",no significant difference
IL-6: cytokine given to SCC-25 cells as a positive control [reference compound],cell proliferation (MTT and % confluency),"SCC-25 cells; SCC-25 cells grown alone, positive control",increased
sCD28: recombinant human CD28 lacking the transmembrane and cytoplasmic domains,IFN gamma secretion,human PBMCs [3],dose-dependent inhibition of IFN gamma secretion
same,IL-6 secretion,human PBMCs [3],increase IL-6 cytokine secretion
same,interleukin-10 secretion,human PBMCs [3],elevation
same,lymphocyte cluster formation,human PBMCs [4],diminish the amount and size of cluster formation
same,IFN gamma secretion,[5]; [9],inhibit IFN gamma secretion
same,IL-1B secretion,[5]; [9],increasing the secretion
same,IL-10 secretion,[5]; [9],increasing the secretion
same,TGF beta secretion,[5]; [9],increasing the secretion
same,effect of MK-3475 in the presence of sCD28,[5]; MK3475 5 μg/mL with sCD28,significantly reduced
same,PD-L1 expression on monocytes,isolated human monocytes; 48 hours,upregulated
same,PD-L2 expression on monocytes,isolated human monocytes; 48 hours,upregulated
same,IDO expression in monocytes,isolated human monocytes; 48 hr,strongly enhanced IDO expression
same,effect on MK-3475 immune activation,human PBMCs [6]; sCD28 2 and 10 μg/mL combined with MK3475 5 μg/mL,abrogated completely this immune activation effect
same,effect on MK-3475,PBMC of cancer patients; combination,rendered the effect of MK-3475 nonexistent
same,concentration of human IFN gamma in the supernatant,PBMC of cancer patients; with or without MK-3475,greatly reduced
same,cell proliferation (MTT and % confluency),SCC-25 cells; coculture with monocytes,by far the greatest increase
same,effect on CD80-Fc secondary activation,"[7]; constant CD80-Fc, titration of sCD28",counteracted the secondary activation effect of the CD80-Fc
same,CD80-Fc needed for immune response in presence of sCD28,isolated PBMCs,an increased amount of CD80-Fc was required
same,effect on anti-PD-1 therapy,[8],nearly completely abrogated in two of the mice
"Pembrolizumab [MK-3475, reference compound]",IFN gamma secretion,[5]; MK3475 5 μg/mL,increased IFN gamma secretion
same,TGF beta secretion,[5]; MK3475 5 μg/mL,decreased TGF beta secretion
same,proinflammatory cytokine secretion (IFN gamma and IL-2),"human PBMCs [6]; MK3475 5 μg/mL, 3 days",increased proinflammatory cytokine secretion
CC#CCOc1ccc(S(=O)(=O)N2CCSC(C)(C)[C@@H]2C(=O)NO)cc1 [TMI-1],viability of the immune cells (MTT),human PBMCs [2],no significant difference
"CD80-Fc: extracellular domain of CD80 fused to an Fc moiety (protein, left off: a dimerising Fc or GST, extracellular domain of CD80 fused to an Fc moiety) VIHVTKEVKEVATLSCGHNVSVEELAQTRIYWQKEKKMVLTMMSGDMNIWPEYKNRTIFDITNNLSIVILALRPSDEGTYECVVLKYEKDAFKREHLAEVTLSVKADFPTPSISDFEIPTSNIRRIICSTSGGFPEPHLSWLENGEELNAINTTVSQDPETELYAVSSKLDFNMTTNHSFMCLIKYGHLRVNQTFNWNTTKQEHFPDN",IFN gamma secretion,[7]; CD80-Fc 2 μg/mL,increased IFN gamma secretion
